pIC50, pKi: −log10 of the molar value. Blank lines part the entries; values can stand above or below the compound they belong to.
Legend:
[1] = target: T1, Plasminogen (Homo sapiens, UniProt P00747); test: Inhibition of plasmin (unknown origin)
[2] = target: Urokinase-type plasminogen activator (Homo sapiens, UniProt P00749); test: Inhibition of urokinase-type plasminogen activator (unknown origin)
[3] = tested on: Plasma; test: Anti-fibrinolytic activity in 5% human plasma in presence of fibrinogen by spectrophotometric method; assay type: functional, cell-free
[4] = target: T1, Plasminogen; test: Inhibition of plasmin (unknown origin) assessed as reduction in amidolytic activity using S-2251 as the substrate after 4 mins
[5] = target: T1, Plasminogen; test: Inhibition of human plasmin using tosyl-Gly-Pro-Lys-pNA as substrate after 10 mins by UV/Vis photometry
[6] = target: T2, Plasma kallikrein (Homo sapiens, UniProt P03952); test: Inhibition of human plasma kallikrein using S2302 as substrate after 10 mins by UV/Vis photometry
T2 sequence (P03952 20-390 limits assumed): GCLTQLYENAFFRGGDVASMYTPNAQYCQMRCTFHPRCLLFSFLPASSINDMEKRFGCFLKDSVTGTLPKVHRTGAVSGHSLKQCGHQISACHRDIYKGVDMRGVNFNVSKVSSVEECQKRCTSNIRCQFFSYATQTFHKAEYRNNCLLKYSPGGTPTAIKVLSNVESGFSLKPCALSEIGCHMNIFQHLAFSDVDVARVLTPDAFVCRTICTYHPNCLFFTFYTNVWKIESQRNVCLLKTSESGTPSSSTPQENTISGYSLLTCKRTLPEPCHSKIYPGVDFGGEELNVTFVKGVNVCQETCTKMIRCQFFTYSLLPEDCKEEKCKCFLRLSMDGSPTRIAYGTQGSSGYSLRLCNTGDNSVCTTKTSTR
T2 sequence (P03952 391-638 limits assumed): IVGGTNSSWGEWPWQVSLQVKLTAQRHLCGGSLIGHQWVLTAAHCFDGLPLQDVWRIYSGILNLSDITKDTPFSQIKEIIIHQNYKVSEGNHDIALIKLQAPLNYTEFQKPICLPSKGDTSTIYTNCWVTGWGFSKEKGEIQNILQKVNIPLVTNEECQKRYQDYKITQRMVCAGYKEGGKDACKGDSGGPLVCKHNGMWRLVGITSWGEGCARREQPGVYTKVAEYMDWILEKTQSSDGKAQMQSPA

[7] = target: T1, Plasminogen; test: Inhibition of human plasmin preincubated for 15 mins followed by MeOSuc-Ala-Phe-Lys-AMC substrate addition and measured after 30 mins by fluorescence method
[8] = target: Coagulation factor XI (Homo sapiens, UniProt P03951); test: Inhibition of human factor 11a preincubated for 15 mins followed by Boc-Glu (OBzl) -Ala-Arg-AMC and measured after 30 mins by fluorescence method
Chain of Coagulation factor XI (P03951 19-387 limits assumed): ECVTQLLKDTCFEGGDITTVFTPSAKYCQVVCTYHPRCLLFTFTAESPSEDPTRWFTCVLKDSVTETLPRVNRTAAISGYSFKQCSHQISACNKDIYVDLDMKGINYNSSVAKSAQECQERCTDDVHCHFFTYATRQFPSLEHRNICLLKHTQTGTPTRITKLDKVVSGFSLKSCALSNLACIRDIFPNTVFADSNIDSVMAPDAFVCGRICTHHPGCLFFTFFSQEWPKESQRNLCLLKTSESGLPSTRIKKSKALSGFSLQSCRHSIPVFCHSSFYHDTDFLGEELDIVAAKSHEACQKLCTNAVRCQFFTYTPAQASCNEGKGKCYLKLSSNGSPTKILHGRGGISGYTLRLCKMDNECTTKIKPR
Chain of Coagulation factor XI (P03951 388-625 limits assumed): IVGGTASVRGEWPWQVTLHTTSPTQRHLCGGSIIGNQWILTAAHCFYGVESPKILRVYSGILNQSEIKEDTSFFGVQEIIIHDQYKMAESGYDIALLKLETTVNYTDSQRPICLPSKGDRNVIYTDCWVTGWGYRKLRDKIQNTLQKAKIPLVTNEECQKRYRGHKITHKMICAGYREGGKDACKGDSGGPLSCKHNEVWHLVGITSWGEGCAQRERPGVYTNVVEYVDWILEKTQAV

[9] = target: T2, Plasma kallikrein; test: Inhibition of human plasma kallikrein preincubated for 15 mins followed by H-Pro-Phe-Arg-AMC substrate addition and measured after 30 mins by fluorescence method
[10] = target: T1, Plasminogen; test: Inhibition of microplasmin (unknown origin) expressed in Pichia pastoris preincubated for 10 mins followed by S2251 substrate addition

T1 sequence (P00747 97-580 limits assumed): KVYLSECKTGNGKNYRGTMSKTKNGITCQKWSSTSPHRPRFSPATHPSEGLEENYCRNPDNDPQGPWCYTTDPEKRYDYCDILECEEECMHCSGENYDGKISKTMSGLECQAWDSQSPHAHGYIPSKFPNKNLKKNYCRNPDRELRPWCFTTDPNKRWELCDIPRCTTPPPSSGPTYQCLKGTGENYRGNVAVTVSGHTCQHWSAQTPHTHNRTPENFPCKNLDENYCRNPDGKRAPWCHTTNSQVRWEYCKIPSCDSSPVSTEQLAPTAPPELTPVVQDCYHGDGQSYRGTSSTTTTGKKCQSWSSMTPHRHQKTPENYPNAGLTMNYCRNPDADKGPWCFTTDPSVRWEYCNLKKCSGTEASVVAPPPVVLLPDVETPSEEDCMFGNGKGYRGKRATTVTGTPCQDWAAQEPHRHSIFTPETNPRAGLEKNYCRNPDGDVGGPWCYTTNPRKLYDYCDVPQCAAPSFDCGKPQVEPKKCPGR
T1 sequence (P00747 581-810 limits assumed): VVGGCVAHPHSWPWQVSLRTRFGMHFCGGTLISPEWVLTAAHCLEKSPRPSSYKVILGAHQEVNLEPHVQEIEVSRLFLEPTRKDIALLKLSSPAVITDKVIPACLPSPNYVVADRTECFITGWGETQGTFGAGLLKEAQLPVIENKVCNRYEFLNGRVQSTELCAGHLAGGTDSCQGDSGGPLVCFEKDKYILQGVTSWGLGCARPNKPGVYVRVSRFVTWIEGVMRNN

pKi [1]: 7.44 | pKi [2]: 7.55
SMILES: N=C(N)c1ccc(CNC(=O)[C@H](CCc2ccccc2)NC(=O)[C@@H](CO)NS(=O)(=O)Cc2ccccc2)cc1

pIC50 [3]: 7.96
SMILES: Cc1cc(Cl)c2c(c1)nn1c(C3CCNCC3)cc(=O)[nH]c21

pIC50 [4]: 4.16
SMILES: CC[C@@H](C)[C@@H](N)C(=O)N[C@@H](Cc1ccccc1)C(=O)N[C@@H](CCCCN)C(=O)Nc1ccc(C(=O)c2ccccc2)cc1

pKi [5]: 9.32 | pKi [6]: 9.22
SMILES: N=C(N)c1ccc(CNC(=O)[C@H](CCc2ccncc2)NC(=O)[C@@H](CCCc2ccccc2)NS(=O)(=O)Cc2ccccc2)cc1

pIC50 [7]: 9.40 | pIC50 [8]: 9.15
SMILES: Cc1nc2[nH]c(C3CC3)nc2cc1-c1ccc(C[C@H](NC(=O)[C@H]2CC[C@H](CN)CC2)C(=O)Nc2cc(Cl)c3[nH]c(=O)[nH]c3c2)cc1

pIC50 [3]: 7.07
SMILES: O=C(NCc1ccco1)Nc1cccc2nn3c(C4CCNCC4)cc(=O)[nH]c3c12

pIC50 [3]: 8.10
SMILES: O=C(c1cnn2c(C3CCNCC3)cc(=O)[nH]c12)C1CC1

pIC50 [3]: 8.00
SMILES: CCc1ccc(C(=O)Nc2cccc3nn4c(C5CCNCC5)cc(=O)[nH]c4c23)cc1

pIC50 [4]: 3.18
SMILES: NCCCC[C@H](NC(=O)[C@H]1CC[C@H](CN)CC1)C(=O)NCOc1ccc(C(=O)c2ccccc2)cc1

pIC50 [7]: 9.06 | pIC50 [9]: 8.14 | pIC50 [8]: 9.47
SMILES: Cc1cc2nc(C(C)C)[nH]c2cc1-c1ccc(C[C@H](NC(=O)[C@H]2CC[C@H](CN)CC2)C(=O)Nc2ccc(-c3nnc(C(F)(F)C(F)(F)C(=O)O)[nH]3)cc2)cc1

pIC50 [3]: 7.96
SMILES: O=c1cc(C2CCNCC2)n2nc3ccc(F)c(-c4ccccc4)c3c2[nH]1

pKi [5]: 8.96 | pKi [6]: 10.00
SMILES: N=C(N)c1ccc(CNC(=O)[C@H](Cc2cccc(CN)c2)NC(=O)[C@@H](Cc2ccc3ccccc3c2)NS(=O)(=O)Cc2ccccc2)cc1

pIC50 [3]: 8.04
SMILES: CC(C)(C)NC(=O)Nc1cccc2nn3c(C4CCNCC4)cc(=O)[nH]c3c12

pIC50 [3]: 8.00
SMILES: C#Cc1cccc2nn3c(C4CCNCC4)cc(=O)[nH]c3c12

pIC50 [4]: 3.70
SMILES: NC[C@H]1CC[C@H](C(=O)N[C@@H](CCCCNC(=O)OCc2ccccc2)C(=O)COc2ccc(C(=O)c3ccccc3)cc2)CC1

pIC50 [10]: 6.62
SMILES: CCCCCCCCNC(=O)[C@H](Cc1ccc(OCc2ccncc2)cc1)NC(=O)[C@H]1CC[C@H](CN)CC1

pIC50 [10]: 6.42
SMILES: CCCCCCCCNC(=O)[C@H](Cc1ccc(OCc2ccc3ccccc3n2)cc1)NC(=O)[C@H]1CC[C@H](CN)CC1

pIC50 [7]: 8.68 | pIC50 [9]: 9.15 | pIC50 [8]: 8.19
SMILES: Cc1cc2c(=O)c(C(=O)O)c[nH]c2cc1-c1ccc(C[C@H](NC(=O)[C@H]2CC[C@H](CN)CC2)C(=O)Nc2cc(Cl)c3[nH]c(=O)[nH]c3c2)cc1

pIC50 [4]: 4.92
SMILES: NCCCCCC(=O)N[C@@H](CCCCN)C(=O)Nc1ccc(C(=O)c2ccccc2)cc1

pIC50 [7]: 9.38 | pIC50 [9]: 8.77 | pIC50 [8]: > 9.89
SMILES: Cc1nc2nc(C(C)C)[nH]c2cc1-c1ccc(C[C@H](NC(=O)[C@H]2CC[C@H](CN)CC2)C(=O)Nc2ccc(-c3nnc(C(F)(F)C(F)(F)C(=O)O)[nH]3)cc2)cc1

pIC50 [3]: 8.10
SMILES: CCC(C)C(=O)c1cnn2c(C3CCNCC3)cc(=O)[nH]c12 (stereo not given)

pIC50 [3]: 8.22
SMILES: CCCc1noc(-c2c(C)nn3c(C4CCNCC4)cc(=O)[nH]c23)n1

pIC50 [7]: 9.00 | pIC50 [9]: 8.07 | pIC50 [8]: 7.67
SMILES: CNC(=O)c1ccc(NC(=O)[C@H](Cc2ccc(-c3cc4[nH]cc(C(=O)O)c(=O)c4cc3C)cc2)NC(=O)[C@H]2CC[C@H](CN)CC2)cc1Cl
